Source: PubChem BioAssay (NCI)
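Each compound was tested at five concentrations against cells in 96-well plates for 48 hours. Abbreviation: GI50, concentration required for 50% inhibition of growth. At the TGI there is no net growth.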

Legend:
Assay in all cases: NCI anticancer screen, dose series, 48 h
SW-620 colon = system: SW-620 colon
SK-OV-3 ovarian = system: SK-OV-3 ovarian
HCT-15 colon = system: HCT-15 colon
KM12 colon = system: KM12 colon
CCRF-CEM leukemia = system: CCRF-CEM leukemia
HS 578T breast = system: HS 578T breast
MOLT-4 leukemia = system: MOLT-4 leukemia
A549 NSCLC = system: A549 NSCLC
HCT-116 colon = system: HCT-116 colon
SF-268 CNS = system: SF-268 CNS
HT29 colon = system: HT29 colon
K-562 leukemia = system: K-562 leukemia
PC-3 prostate = system: PC-3 prostate
HOP-92 NSCLC = system: HOP-92 NSCLC
SF-295 CNS = system: SF-295 CNS
MCF7 breast = system: MCF7 breast
IGROV1 ovarian = system: IGROV1 ovarian
HL-60(TB) leukemia = system: HL-60(TB) leukemia
MDA-N = system: MDA-N
SK-MEL-28 melanoma = system: SK-MEL-28 melanoma
U251 CNS = system: U251 CNS
CAKI-1 renal = system: CAKI-1 renal
SR leukemia = system: SR leukemia
RPMI-8226 leukemia = system: RPMI-8226 leukemia
NCI-H460 lung = system: NCI-H460 lung
RXF 393 renal = system: RXF 393 renal
HCC-2998 colon = system: HCC-2998 colon
HOP-62 NSCLC = system: HOP-62 NSCLC
LOX IMVI melanoma = system: LOX IMVI melanoma
COLO 205 colon = system: COLO 205 colon
NCI/ADR-RES ovarian = system: NCI/ADR-RES ovarian
EKVX NSCLC = system: EKVX NSCLC
BT-549 breast = system: BT-549 breast
NCI-H522 lung = system: NCI-H522 lung
UO-31 renal = system: UO-31 renal
OVCAR-3 ovarian = system: OVCAR-3 ovarian
TK-10 renal = system: TK-10 renal
NCI-H23 lung = system: NCI-H23 lung
SK-MEL-5 melanoma = system: SK-MEL-5 melanoma
OVCAR-4 ovarian = system: OVCAR-4 ovarian
OVCAR-5 ovarian = system: OVCAR-5 ovarian
T-47D breast = system: T-47D breast
MDA-MB-435 = system: MDA-MB-435
UACC-257 melanoma = system: UACC-257 melanoma
SF-539 CNS = system: SF-539 CNS
MALME-3M melanoma = system: MALME-3M melanoma
DU-145 prostate = system: DU-145 prostate
NCI-H226 lung = system: NCI-H226 lung
SNB-19 CNS = system: SNB-19 CNS
OVCAR-8 ovarian = system: OVCAR-8 ovarian
SN12C renal = system: SN12C renal
ACHN renal = system: ACHN renal
SNB-75 CNS = system: SNB-75 CNS
786-0 renal = system: 786-0 renal
A498 renal = system: A498 renal
M14 melanoma = system: M14 melanoma
MDA-MB-231 breast = system: MDA-MB-231 breast
SK-MEL-2 melanoma = system: SK-MEL-2 melanoma
UACC-62 melanoma = system: UACC-62 melanoma

Structure (SMILES): COc1cc2cc(C(=O)N3C[C@@H](CCl)c4c3cc(N)c3ccccc43)[nH]c2c(OC)c1OC
- TGI (SW-620 colon): > 100 µM
- TGI (SK-OV-3 ovarian): 1.45 µM
- TGI (HCT-15 colon): 1.11 µM
- TGI (KM12 colon): 0.0257 µM
- TGI (CCRF-CEM leukemia): > 100 µM
- TGI (HS 578T breast): > 100 µM
- TGI (MOLT-4 leukemia): 1.64 µM
- TGI (A549 NSCLC): > 100 µM
- TGI (HCT-116 colon): 0.136 µM
- TGI (SF-268 CNS): > 100 µM
- TGI (HT29 colon): 1.1 µM
- TGI (K-562 leukemia): > 100 µM
- TGI (PC-3 prostate): 0.108 µM
- TGI (HOP-92 NSCLC): > 100 µM
- TGI (SF-295 CNS): > 100 µM
- TGI (MCF7 breast): 22 µM
- TGI (IGROV1 ovarian): 0.467 µM
- TGI (HL-60(TB) leukemia): > 100 µM
- TGI (MDA-N): 0.00153 µM
- TGI (SK-MEL-28 melanoma): > 100 µM
- TGI (U251 CNS): > 100 µM
- TGI (CAKI-1 renal): 0.0364 µM
- TGI (SR leukemia): > 100 µM
- TGI (RPMI-8226 leukemia): > 100 µM

Structure (SMILES): Cc1cc(CNC(=O)OCc2ccccc2)c(C)c2c1Oc1ccccc1O2
- TGI (SW-620 colon): > 100 µM
- TGI (NCI-H460 lung): > 100 µM
- TGI (RXF 393 renal): 32.6 µM
- TGI (HCC-2998 colon): > 100 µM
- TGI (SK-OV-3 ovarian): 51.3 µM
- TGI (HCT-15 colon): > 100 µM
- TGI (KM12 colon): > 100 µM
- TGI (HOP-62 NSCLC): 53.3 µM
- TGI (LOX IMVI melanoma): > 100 µM
- TGI (CCRF-CEM leukemia): > 100 µM
- TGI (COLO 205 colon): > 100 µM
- TGI (NCI/ADR-RES ovarian): > 71.4 µM
- TGI (HS 578T breast): 53.6 µM
- TGI (MOLT-4 leukemia): > 100 µM
- TGI (EKVX NSCLC): > 100 µM
- TGI (BT-549 breast): > 100 µM
- TGI (A549 NSCLC): 97.7 µM
- TGI (HCT-116 colon): > 100 µM
- TGI (NCI-H522 lung): 90.7 µM
- TGI (UO-31 renal): > 100 µM
- TGI (OVCAR-3 ovarian): > 100 µM
- TGI (SF-268 CNS): > 74.3 µM
- TGI (HT29 colon): > 68.8 µM
- TGI (TK-10 renal): > 100 µM
- TGI (K-562 leukemia): > 100 µM
- TGI (NCI-H23 lung): > 100 µM
- TGI (SK-MEL-5 melanoma): > 100 µM
- TGI (OVCAR-4 ovarian): 72.3 µM
- TGI (OVCAR-5 ovarian): > 100 µM
- TGI (PC-3 prostate): > 100 µM
- TGI (T-47D breast): > 100 µM
- TGI (HOP-92 NSCLC): 26.1 µM
- TGI (MDA-MB-435): > 100 µM
- TGI (UACC-257 melanoma): > 100 µM
- GI50 (SF-539 CNS): 19.5 µM
- TGI (SF-539 CNS): 47.9 µM
- TGI (SF-295 CNS): > 100 µM
- TGI (MCF7 breast): > 100 µM
- TGI (MALME-3M melanoma): > 100 µM
- TGI (DU-145 prostate): > 100 µM
- TGI (NCI-H226 lung): > 93.6 µM
- TGI (SNB-19 CNS): > 92.9 µM
- TGI (OVCAR-8 ovarian): 58.5 µM
- TGI (SN12C renal): > 91.8 µM
- TGI (ACHN renal): > 100 µM
- TGI (SNB-75 CNS): 36.3 µM
- TGI (IGROV1 ovarian): > 100 µM
- TGI (786-0 renal): 35.6 µM
- GI50 (HL-60(TB) leukemia): > 100 µM
- TGI (HL-60(TB) leukemia): > 100 µM
- TGI (A498 renal): 74.7 µM
- TGI (M14 melanoma): > 100 µM
- TGI (SK-MEL-28 melanoma): > 100 µM
- TGI (MDA-MB-231 breast): > 60.5 µM
- TGI (U251 CNS): > 67.3 µM
- TGI (CAKI-1 renal): > 87.5 µM
- TGI (SK-MEL-2 melanoma): > 27.3 µM
- TGI (UACC-62 melanoma): > 100 µM
- TGI (SR leukemia): > 100 µM
- TGI (RPMI-8226 leukemia): > 100 µM
